# Measurements reported in ChEMBL document CHEMBL3045446, “In vitro antimicrobial and antimycobacterial activity of some chalcones and their derivatives” (2013).
# Experiments:
# Format in all cases: functional
# Shigella flexneri [1] = experiment: Antimicrobial activity against Shigella flexneri MTCC1457 assessed as growth inhibition after 24 hr by agar streak dilution method; details: MTCC1457, 24 h
# Staphylococcus aureus [2] = experiment: Antimicrobial activity against Staphylococcus aureus MTCC 96 assessed as growth inhibition after 24 hr by agar streak dilution method; details: MTCC 96, 24 h
# Escherichia coli [3] = experiment: Antimicrobial activity against Escherichia coli MTCC 739 assessed as growth inhibition after 24 hr by agar streak dilution method; details: MTCC 739, 24 h
# Pseudomonas aeruginosa [4] = experiment: Antimicrobial activity against Pseudomonas aeruginosa MTCC 741 assessed as growth inhibition after 24 hr by agar streak dilution method; details: MTCC 741, 24 h
# Salmonella typhi [5] = experiment: Antimicrobial activity against Salmonella enterica subsp. enterica serovar Typhi MTCC 733 assessed as growth inhibition after 24 hr by agar streak dilution method; details: MTCC 733, 24 h
# Shigella flexneri [6] = experiment: Antimicrobial activity against Shigella flexneri MTCC1457 assessed as diameter of growth inhibition zone after 24 hr
# Aspergillus clavatus [7] = experiment: Antimicrobial activity against Aspergillus clavatus MTCC 1323 assessed as diameter of growth inhibition zone after 48 hr; further: test concentration or dose not given here
# Candida albicans [8] = experiment: Antimicrobial activity against Candida albicans MTCC 183 assessed as diameter of growth inhibition zone after 48 hr; further: test concentration or dose not given here
# [9] = system: Mycobacterium tuberculosis; experiment: Antituberculosis activity against Mycobacterium tuberculosis H37Rv assessed as growth inhibition after 12 to 28 days by L-J MIC method; details: for MIC: Mycobacterium tuberculosis, H37Rv
# Bacillus cereus [10] = experiment: Antimicrobial activity against Bacillus cereus MTCC 430 assessed as growth inhibition after 24 hr by agar streak dilution method; details: MTCC 430, 24 h
# Aspergillus fumigatus [11] = experiment: Antimicrobial activity against Aspergillus fumigatus MTCC 343 assessed as diameter of growth inhibition zone after 48 hr; further: test concentration or dose not given here
# Aspergillus clavatus [12] = experiment: Antimicrobial activity against Aspergillus clavatus MTCC 1323 assessed as growth inhibition after 48 hr by agar streak dilution method; details: MTCC 1323, 48 h
# Salmonella typhi [13] = experiment: Antimicrobial activity against Salmonella enterica subsp. enterica serovar Typhi MTCC 733 assessed as diameter of growth inhibition zone after 24 hr
# Aspergillus fumigatus [14] = experiment: Antimicrobial activity against Aspergillus fumigatus MTCC 343 assessed as growth inhibition after 48 hr by agar streak dilution method; details: MTCC 343, 48 h
# Staphylococcus aureus [15] = experiment: Antimicrobial activity against Staphylococcus aureus MTCC 96 assessed as diameter of growth inhibition zone after 24 hr; further: test concentration or dose not given here
# Proteus vulgaris [16] = experiment: Antimicrobial activity against Proteus vulgaris MTCC 1771 assessed as growth inhibition after 24 hr by agar streak dilution method; details: MTCC 1771, 24 h
# Aspergillus niger [17] = experiment: Antimicrobial activity against Aspergillus niger MTCC 282 assessed as diameter of growth inhibition zone after 48 hr; further: test concentration or dose not given here
# Pseudomonas aeruginosa [18] = experiment: Antimicrobial activity against Pseudomonas aeruginosa MTCC 741 assessed as diameter of growth inhibition zone after 24 hr
# Klebsiella pneumoniae [19] = experiment: Antimicrobial activity against Klebsiella pneumoniae MTCC 109 assessed as diameter of growth inhibition zone after 24 hr; further: test concentration or dose not given here
# Aspergillus niger [20] = experiment: Antimicrobial activity against Aspergillus niger MTCC 282 assessed as growth inhibition after 48 hr by agar streak dilution method; details: MTCC 282, 48 h
# Escherichia coli [21] = experiment: Antimicrobial activity against Escherichia coli MTCC 739 assessed as diameter of growth inhibition zone after 24 hr; further: test concentration or dose not given here
# Klebsiella pneumoniae [22] = experiment: Antimicrobial activity against Klebsiella pneumoniae MTCC 109 assessed as growth inhibition after 24 hr by agar streak dilution method; details: MTCC 109, 24 h
# Proteus vulgaris [23] = experiment: Antimicrobial activity against Proteus vulgaris MTCC 1771 assessed as diameter of growth inhibition zone after 24 hr
# Bacillus cereus [24] = experiment: Antimicrobial activity against Bacillus cereus MTCC 430 assessed as diameter of growth inhibition zone after 24 hr; further: test concentration or dose not given here
# Candida albicans [25] = experiment: Antimicrobial activity against Candida albicans MTCC 183 assessed as growth inhibition after 48 hr by agar streak dilution method; details: MTCC 183, 48 h
SMILES,MIC (Shigella flexneri [1]) [µg/mL],MIC (Staphylococcus aureus [2]) [µg/mL],MIC (Escherichia coli [3]) [µg/mL],MIC (Pseudomonas aeruginosa [4]) [µg/mL],MIC (Salmonella typhi [5]) [µg/mL],diameter of the inhibition zone (DIZ) (Shigella flexneri [6]) [mm],diameter of the inhibition zone (DIZ) (Aspergillus clavatus [7]) [mm],diameter of the inhibition zone (DIZ) (Candida albicans [8]) [mm],growth inhibition (GI) [9] [%],MIC [9] [µg/mL],MIC (Bacillus cereus [10]) [µg/mL],diameter of the inhibition zone (DIZ) (Aspergillus fumigatus [11]) [mm],MIC (Aspergillus clavatus [12]) [µg/mL],diameter of the inhibition zone (DIZ) (Salmonella typhi [13]) [mm],MIC (Aspergillus fumigatus [14]) [µg/mL],diameter of the inhibition zone (DIZ) (Staphylococcus aureus [15]) [mm],MIC (Proteus vulgaris [16]) [µg/mL],diameter of the inhibition zone (DIZ) (Aspergillus niger [17]) [mm],diameter of the inhibition zone (DIZ) (Pseudomonas aeruginosa [18]) [mm],diameter of the inhibition zone (DIZ) (Klebsiella pneumoniae [19]) [mm],also measured
Nc1nc(-c2ccccc2)cc(-c2ccc(Nc3cc(=O)oc4ccccc34)cc2)n1,100,100,100,100,50,14,21,17,95,500,100,19,25,17,50,13,100,17,12,15,MIC (Aspergillus niger [20]): 50 µg/mL; diameter of the inhibition zone (DIZ) (Escherichia coli [21]): 14 mm; MIC (Klebsiella pneumoniae [22]): 100 µg/mL; diameter of the inhibition zone (DIZ) (Proteus vulgaris [23]): 15 mm; diameter of the inhibition zone (DIZ) (Bacillus cereus [24]): 15 mm; MIC (Candida albicans [25]): 50 µg/mL
O=C(/C=C/c1ccc(Cl)cc1Cl)c1ccc(Nc2cc(=O)oc3ccccc23)cc1,100,25,100,100,50,13,14,12,95,1000,50,17,100,17,50,20,50,15,<10,16,MIC (Aspergillus niger [20]): 100 µg/mL; diameter of the inhibition zone (DIZ) (Escherichia coli [21]): 14 mm; MIC (Klebsiella pneumoniae [22]): 100 µg/mL; diameter of the inhibition zone (DIZ) (Proteus vulgaris [23]): 19 mm; diameter of the inhibition zone (DIZ) (Bacillus cereus [24]): 16 mm; MIC (Candida albicans [25]): 100 µg/mL
CC(=O)N1N=C(c2ccc(Nc3cc(=O)oc4ccccc34)cc2)CC1c1ccc(Cl)cc1 (stereo unspecified),50,50,100,100,50,20,15,19,97,250,100,17,100,18,50,19,50,16,14,21,MIC (Aspergillus niger [20]): 100 µg/mL; diameter of the inhibition zone (DIZ) (Escherichia coli [21]): 15 mm; MIC (Klebsiella pneumoniae [22]): 50 µg/mL; diameter of the inhibition zone (DIZ) (Proteus vulgaris [23]): 19 mm; diameter of the inhibition zone (DIZ) (Bacillus cereus [24]): 17 mm; MIC (Candida albicans [25]): 50 µg/mL
CC(=O)N1N=C(c2ccc(Nc3cc(=O)oc4ccccc34)cc2)CC1c1ccc([N+](=O)[O-])cc1 (stereo unspecified),100,100,100,100,100,13,17,15,96,500,100,13,50,17,100,12,100,14,11,13,MIC (Aspergillus niger [20]): 100 µg/mL; diameter of the inhibition zone (DIZ) (Escherichia coli [21]): 14 mm; MIC (Klebsiella pneumoniae [22]): 100 µg/mL; diameter of the inhibition zone (DIZ) (Proteus vulgaris [23]): <10 mm; diameter of the inhibition zone (DIZ) (Bacillus cereus [24]): 11 mm; MIC (Candida albicans [25]): 100 µg/mL
CC(=O)N1N=C(c2ccc(Nc3cc(=O)oc4ccccc34)cc2)CC1c1ccc(O)cc1O (stereo unspecified),25,50,25,25,25,20,22,17,97,250,50,24,25,21,12.5,19,12.5,21,22,23,MIC (Aspergillus niger [20]): 25 µg/mL; diameter of the inhibition zone (DIZ) (Escherichia coli [21]): 20 mm; MIC (Klebsiella pneumoniae [22]): 6.25 µg/mL; diameter of the inhibition zone (DIZ) (Proteus vulgaris [23]): 22 mm; diameter of the inhibition zone (DIZ) (Bacillus cereus [24]): 20 mm; MIC (Candida albicans [25]): 50 µg/mL
CC(=O)N1N=C(c2ccc(Nc3cc(=O)oc4ccccc34)cc2)CC1c1ccccc1Br (stereo unspecified),100,100,100,100,100,14,14,21,98,200,100,17,100,15,50,16,100,15,12,16,MIC (Aspergillus niger [20]): 100 µg/mL; diameter of the inhibition zone (DIZ) (Escherichia coli [21]): 14 mm; MIC (Klebsiella pneumoniae [22]): 100 µg/mL; diameter of the inhibition zone (DIZ) (Proteus vulgaris [23]): 15 mm; diameter of the inhibition zone (DIZ) (Bacillus cereus [24]): 14 mm; MIC (Candida albicans [25]): 25 µg/mL
